Laboratory results as given in US6706740B2, “Fungicidal heterocyclic aromatic amides and their compositions, methods of use and preparation” (Dow AgroSciences LLC, priority 1999, dated 2004).
Where two headings read alike, the source gives them in different places.

Key:
[1] = tested on: Rhizoctonia solani (RHIZSO); assay: microbe, parasite or virus in culture; type: cell-based; settings: Rhizoctonia solani, read-out: RHIZSO in vitro Growth Inhibition
[2] = tested on: Erysiphe graminis—ERYSGT; assay: Powdery Mildew of Wheat, in vivo whole plant, 24 Hour Protectant; settings: Erysiphe, read-out: ERYSGT in vivo 1 Day Protectant
[3] = tested on: Mycosphaerella graminicola (Septoria tritici—SEPTTR); assay: In vitro fungal growth inhibition, Mycosphaerella graminicola (SEPTTR); type: cell-based; settings: Zymoseptoria tritici, read-out: SEPTTR in vitro Growth Inhibition
[4] = tested on: Septoria tritici—SEPTTR; assay: Leaf Blotch of Wheat, in vivo whole plant, 24 Hour Protectant; settings: for pest or weed control at 100 ppm: Zymoseptoria tritici, 24 h, read-out: SEPTTR in vivo 1 Day Protectant
[5] = tested on: Leptosphaeria nodorum—LEPTNO; assay: Glume Blotch of Wheat, in vivo whole plant, 24 Hour Protectant; settings: for pest or weed control at 100 ppm: Leptosphaeria, read-out: LEPTNO in vivo 1 Day Protectant
[6] = tested on: Stagonospora nodorum (Leptosphaeria nodorum—LEPTNO); assay: In vitro fungal growth inhibition, Stagonospora nodorum (LEPTNO); type: cell-based; settings: Leptosphaeria, read-out: LEPTNO in vitro Growth Inhibition
[7] = tested on: Magnaporthe grisea (Pyricularia oryzae—PYRIOR); assay: microbe, parasite or virus in culture; type: cell-based; settings: Pyricularia oryzae, read-out: PYRIOR in vitro Growth Inhibition
[8] = tested on: Puccinia recondita—PUCCRT; assay: Brown Rust of Wheat, in vivo whole plant, 24 Hour Protectant; settings: for pest or weed control at 100 ppm: Puccinia, read-out: PUCCRT in vivo 1 Day Protectant
[9] = tested on: Ustilago maydis (USTIMA); assay: microbe, parasite or virus in culture; type: cell-based; settings: Mycosarcoma maydis, read-out: USTIMA in vitro Growth Inhibition
[10] = tested on: Phytophthora infestans (PHYTIN); assay: microbe, parasite or virus in culture; type: cell-based; settings: Phytophthora infestans, read-out: PHYTIN in vitro Growth Inhibition
[11] = tested on: Phytophthora infestans—PHYTIN; assay: whole plant or invertebrate; type: in vivo; settings: Phytophthora, in Solanum lycopersicum, 24 h, read-out: PHYTIN in vivo 1 Day Protectant
[12] = 100 ppm spray, wheat, 24 hour protectant, % control of fungal infection vs untreated plants
[13] = 100 ppm spray, wheat, 24 hour protectant, control of fungal infection vs untreated plants
[14] = 100 ppm spray, 24 hour protectant, wheat, control of fungal infection vs untreated plants
[15] = wheat plants sprayed at 100 ppm, inoculated after 24 hours, control of fungal infection vs untreated plants

COc1ccc(C(=O)Oc2c(OC)ccnc2C(=O)N[C@H]2COC(=O)[C@H](Cc3ccccc3)[C@@H](OC(=O)C(C)C)[C@H](C)OC2=O)cc1 [Compound 634]
inhibition at 25 ppm [1]: < 80%
pest or weed control at 100 ppm [2, 12]: < 25%
inhibition at 25 ppm ([3]; 25 ppm in growth medium): < 80%
SEPTTR in vivo 1 Day Protectant [4, 12]: + +
LEPTNO in vivo 1 Day Protectant [5, 12]: + +
inhibition at 25 ppm ([6]; 25 ppm in growth medium): < 80%
inhibition at 25 ppm [7]: < 80%
PUCCRT in vivo 1 Day Protectant [8, 12]: + +
inhibition at 25 ppm [9]: < 80%
inhibition at 25 ppm [10]: < 80%
pest or weed control at 100 ppm [11]: < 25%

COc1ccnc(C(=O)Nc2ccc(Oc3cccc(C#N)c3)cc2)c1O [Compound 421]
inhibition at 25 ppm [1]: < 80%
pest or weed control at 100 ppm [2, 13]: < 25%
inhibition at 25 ppm ([3]; 25 ppm in growth medium): < 80%
pest or weed control at 100 ppm [4, 13]: < 25%
pest or weed control at 100 ppm [5, 13]: 25 to 74%
inhibition at 25 ppm ([6]; 25 ppm in growth medium): < 80%
inhibition at 25 ppm [7]: < 80%
pest or weed control at 100 ppm [8, 13]: < 25%
inhibition at 25 ppm [9]: < 80%
inhibition at 25 ppm [10]: < 80%
pest or weed control at 100 ppm [11]: < 25%

COc1ccnc(C(=O)N[C@H]2CO[C@@H](C(C)Cc3ccc(C(C)(C)C)cc3)OC2)c1O (stereo partly shown) [Compound 317]
inhibition at 25 ppm [1]: < 80%
pest or weed control at 100 ppm [2, 14]: < 25%
inhibition at 25 ppm ([3]; 25 ppm in growth medium): < 80%
pest or weed control at 100 ppm [4, 14]: < 25%
pest or weed control at 100 ppm [5, 14]: < 25%
inhibition at 25 ppm ([6]; 25 ppm in growth medium): < 80%
inhibition at 25 ppm [7]: < 80%
PUCCRT in vivo 1 Day Protectant [8, 14]: + +
inhibition at 25 ppm [9]: < 80%
inhibition at 25 ppm [10]: < 80%
pest or weed control at 100 ppm [11]: 25 to 74%

CC1(C)CC(NC(=O)c2ncccc2O)CC(C)(C)C1=O [Compound 205]
inhibition at 25 ppm [1]: < 80%
pest or weed control at 100 ppm [2, 14]: < 25%
inhibition at 25 ppm ([3]; 25 ppm in growth medium): < 80%
pest or weed control at 100 ppm [4, 14]: < 25%
pest or weed control at 100 ppm [5, 14]: < 25%
inhibition at 25 ppm ([6]; 25 ppm in growth medium): < 80%
inhibition at 25 ppm [7]: < 80%
pest or weed control at 100 ppm [8, 14]: < 25%
inhibition at 25 ppm [9]: < 80%
inhibition at 25 ppm [10]: < 80%
pest or weed control at 100 ppm [11]: < 25%

CC1(C)CC(NC(=O)c2nccc(Cl)c2O)CC(C)(C)C1 [Compound 480]
inhibition at 25 ppm [1]: < 80%
pest or weed control at 100 ppm [2, 15]: < 25%
inhibition at 25 ppm ([3]; 25 ppm in the growth medium): < 80%
pest or weed control at 100 ppm [4, 15]: < 25%
pest or weed control at 100 ppm [5, 15]: 25 to 74%
inhibition at 25 ppm ([6]; 25 ppm in the growth medium): < 80%
inhibition at 25 ppm [7]: > 80%
pest or weed control at 100 ppm [8, 15]: < 25%
inhibition at 25 ppm [9]: < 80%
inhibition at 25 ppm [10]: < 80%
pest or weed control at 100 ppm [11]: < 25%

COCCCc1ccc2c(c1)OC(C)C(NC(=O)c1nccc(OC)c1O)C2=O (stereo not shown) [Compound 322]
inhibition at 25 ppm [1]: > 80%
pest or weed control at 100 ppm [2, 14]: 25 to 74%
inhibition at 25 ppm ([3]; 25 ppm in growth medium): < 80%
pest or weed control at 100 ppm [4, 14]: 25 to 74%
pest or weed control at 100 ppm [5, 14]: 25 to 74%
inhibition at 25 ppm ([6]; 25 ppm in growth medium): > 80%
inhibition at 25 ppm [7]: < 80%
pest or weed control at 100 ppm [8, 14]: 25 to 74%
inhibition at 25 ppm [9]: < 80%
inhibition at 25 ppm [10]: < 80%
pest or weed control at 100 ppm [11]: < 25%

COc1ccnc(C(=O)N[C@H]2COC(=O)[C@H](Cc3ccccc3)[C@@H](OC(=O)C(C)C)[C@H](C)OC2=O)c1OC(=O)c1ccc(F)c(F)c1 [Compound 639]
inhibition at 25 ppm [1]: < 80%
pest or weed control at 100 ppm [2, 12]: < 25%
inhibition at 25 ppm ([3]; 25 ppm in growth medium): < 80%
SEPTTR in vivo 1 Day Protectant [4, 12]: + +
LEPTNO in vivo 1 Day Protectant [5, 12]: + +
inhibition at 25 ppm ([6]; 25 ppm in growth medium): > 80%
inhibition at 25 ppm [7]: < 80%
PUCCRT in vivo 1 Day Protectant [8, 12]: + +
inhibition at 25 ppm [9]: < 80%
inhibition at 25 ppm [10]: < 80%
pest or weed control at 100 ppm [11]: < 25%

COc1ccnc(C(=O)NC2C(=O)c3ccc(-c4ccco4)cc3OC2C)c1O (stereo not shown) [Compound 323]
inhibition at 25 ppm [1]: > 80%
pest or weed control at 100 ppm [2, 14]: < 25%
inhibition at 25 ppm ([3]; 25 ppm in growth medium): > 80%
SEPTTR in vivo 1 Day Protectant [4, 14]: + +
LEPTNO in vivo 1 Day Protectant [5, 14]: + +
inhibition at 25 ppm ([6]; 25 ppm in growth medium): > 80%
inhibition at 25 ppm [7]: > 80%
pest or weed control at 100 ppm [8, 14]: 25 to 74%
inhibition at 25 ppm [9]: < 80%
inhibition at 25 ppm [10]: < 80%
pest or weed control at 100 ppm [11]: < 25%
